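How tested: cells in 96-well plates exposed to compound for 48 hours at five concentrations. At the TGI there is no net growth.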
How the values were obtained:
Assay in all cases: growth of human tumour cells (NCI), 48 h
NCI-H23 lung = test system: NCI-H23 lung
ACHN renal = test system: ACHN renal
RXF 393 renal = test system: RXF 393 renal
EKVX NSCLC = test system: EKVX NSCLC
SNB-75 CNS = test system: SNB-75 CNS
SF-539 CNS = test system: SF-539 CNS
MDA-N = test system: MDA-N
MDA-MB-435 = test system: MDA-MB-435
NCI-H226 lung = test system: NCI-H226 lung
A549 NSCLC = test system: A549 NSCLC
K-562 leukemia = test system: K-562 leukemia
NCI-H522 lung = test system: NCI-H522 lung
KM12 colon = test system: KM12 colon
SR leukemia = test system: SR leukemia
TK-10 renal = test system: TK-10 renal
SK-OV-3 ovarian = test system: SK-OV-3 ovarian
NCI-H460 lung = test system: NCI-H460 lung
SF-268 CNS = test system: SF-268 CNS
OVCAR-8 ovarian = test system: OVCAR-8 ovarian
BT-549 breast = test system: BT-549 breast
SK-MEL-2 melanoma = test system: SK-MEL-2 melanoma
786-0 renal = test system: 786-0 renal
U251 CNS = test system: U251 CNS
NCI/ADR-RES ovarian = test system: NCI/ADR-RES ovarian
RPMI-8226 leukemia = test system: RPMI-8226 leukemia
MDA-MB-231 breast = test system: MDA-MB-231 breast
MCF7 breast = test system: MCF7 breast
MALME-3M melanoma = test system: MALME-3M melanoma
OVCAR-5 ovarian = test system: OVCAR-5 ovarian
HCT-15 colon = test system: HCT-15 colon
T-47D breast = test system: T-47D breast
HT29 colon = test system: HT29 colon
PC-3 prostate = test system: PC-3 prostate
OVCAR-4 ovarian = test system: OVCAR-4 ovarian
M14 melanoma = test system: M14 melanoma
SW-620 colon = test system: SW-620 colon
MOLT-4 leukemia = test system: MOLT-4 leukemia
CAKI-1 renal = test system: CAKI-1 renal
UACC-257 melanoma = test system: UACC-257 melanoma
OVCAR-3 ovarian = test system: OVCAR-3 ovarian
LOX IMVI melanoma = test system: LOX IMVI melanoma
CCRF-CEM leukemia = test system: CCRF-CEM leukemia
HS 578T breast = test system: HS 578T breast
HOP-62 NSCLC = test system: HOP-62 NSCLC
SK-MEL-28 melanoma = test system: SK-MEL-28 melanoma
UO-31 renal = test system: UO-31 renal
HCT-116 colon = test system: HCT-116 colon
HOP-92 NSCLC = test system: HOP-92 NSCLC
SF-295 CNS = test system: SF-295 CNS
SNB-19 CNS = test system: SNB-19 CNS
SN12C renal = test system: SN12C renal
HL-60(TB) leukemia = test system: HL-60(TB) leukemia
COLO 205 colon = test system: COLO 205 colon
SK-MEL-5 melanoma = test system: SK-MEL-5 melanoma
DU-145 prostate = test system: DU-145 prostate
HCC-2998 colon = test system: HCC-2998 colon
UACC-62 melanoma = test system: UACC-62 melanoma
IGROV1 ovarian = test system: IGROV1 ovarian
A498 renal = test system: A498 renal

Cc1ccc2c3ccc4c(c3n(C)c2c1)C(=O)C=CC4=O
TGI (NCI-H23 lung): > 10 µM
TGI (ACHN renal): > 10 µM
TGI (RXF 393 renal): > 7.63 µM
TGI (EKVX NSCLC): > 10 µM
TGI (SNB-75 CNS): > 10 µM
TGI (SF-539 CNS): > 9.21 µM
TGI (MDA-N): > 10 µM
TGI (MDA-MB-435): > 10 µM
TGI (NCI-H226 lung): > 10 µM
TGI (A549 NSCLC): > 10 µM
TGI (K-562 leukemia): 3.75 µM
TGI (NCI-H522 lung): 4.75 µM
TGI (KM12 colon): > 10 µM
TGI (SR leukemia): 4.73 µM
TGI (TK-10 renal): > 10 µM
TGI (SK-OV-3 ovarian): > 10 µM
TGI (NCI-H460 lung): > 10 µM
TGI (SF-268 CNS): > 10 µM
TGI (OVCAR-8 ovarian): > 10 µM
TGI (BT-549 breast): > 7.22 µM
TGI (SK-MEL-2 melanoma): > 10 µM
TGI (786-0 renal): 5.63 µM
TGI (U251 CNS): > 10 µM
TGI (NCI/ADR-RES ovarian): > 10 µM
TGI (RPMI-8226 leukemia): 5.67 µM
TGI (MDA-MB-231 breast): > 10 µM
TGI (MCF7 breast): > 6.18 µM
TGI (MALME-3M melanoma): 6.01 µM
TGI (OVCAR-5 ovarian): > 10 µM
TGI (HCT-15 colon): > 10 µM
TGI (T-47D breast): 5.92 µM
TGI (HT29 colon): > 10 µM
TGI (PC-3 prostate): > 10 µM
TGI (OVCAR-4 ovarian): > 7.77 µM
TGI (M14 melanoma): > 10 µM
TGI (SW-620 colon): 4.58 µM
TGI (MOLT-4 leukemia): 2.61 µM
TGI (CAKI-1 renal): > 10 µM
TGI (UACC-257 melanoma): > 10 µM
TGI (OVCAR-3 ovarian): 8.6 µM
TGI (LOX IMVI melanoma): > 10 µM
TGI (CCRF-CEM leukemia): 0.844 µM
TGI (HS 578T breast): > 10 µM
TGI (HOP-62 NSCLC): > 10 µM
TGI (SK-MEL-28 melanoma): > 10 µM
TGI (UO-31 renal): > 10 µM
TGI (HCT-116 colon): 4.95 µM
TGI (HOP-92 NSCLC): 7.26 µM
TGI (SF-295 CNS): > 10 µM
TGI (SNB-19 CNS): > 10 µM
TGI (SN12C renal): > 10 µM
TGI (HL-60(TB) leukemia): 3.9 µM
TGI (COLO 205 colon): 5.51 µM
TGI (SK-MEL-5 melanoma): > 10 µM
TGI (DU-145 prostate): > 10 µM
TGI (HCC-2998 colon): > 10 µM
TGI (UACC-62 melanoma): > 10 µM
TGI (IGROV1 ovarian): > 10 µM
TGI (A498 renal): > 10 µM
